Assays:
[1] = design: method as in earlier work; settings: constant, isocratically determined and predefined values of the calibration set; cited from earlier work
[2] = IAM chromatography on new IAM.PC.DD2 columns (gradient HPLC, CHI (IAM)); format: physicochemical; design: key to CHI (IAM) “new” / P20511-014-3 CHI (IAM): CHI (IAM) from retention times calibrated to predefined CHI standards; settings: for log K (IAM): constant values of the calibration set, CHI IAM converted to octanol/water lipophilicity scale by equation 7; for P20511-014-3 CHI (IAM): new IAM.PC.DD2 column batch P20511-014-3, pH 7.4; for R20511-014-3 CHI (IAM): new IAM.PC.DD2 column batch R20511-014-3, pH 7.4
Protocol: The IAM binding was measured using IAM.PC.DD2 HPLC columns (Regis Technologies, Inc., IL, USA) with dimensions of 100 x 4.6 mm, particle size 10 μm with 300 Å pore size.
Two batches of IAM.PC.DD2 columns were studied (R20511-014-3 and P20511-014-3) that had been prepared using the new batches of silica support.
The retention times were standardized using the IAM calibration mixture, containing octanophenone, heptanophenone, hexanophenone, valerophenone, butyrophenone, propiophenone, acetophenone, acetanilide and paracetamol. The retention times of the compounds were plotted against the isocratically determined and predefined CHI (IAM) values listed in Table 1. The slope and intercept of the obtained straight line was used to calculate the CHI IAM values of new compounds.

[3] = human
[4] = reference CHI (IAM), old columns; cited from earlier work
[5] = target: T1, human serum albumin (HSA) (Homo sapiens, UniProt P02768); test: Protein binding on chemically bonded HSA column (Chiralpak-HSA); settings: remeasured in this study, pH 7.4
T1 sequence (P02768 25-609): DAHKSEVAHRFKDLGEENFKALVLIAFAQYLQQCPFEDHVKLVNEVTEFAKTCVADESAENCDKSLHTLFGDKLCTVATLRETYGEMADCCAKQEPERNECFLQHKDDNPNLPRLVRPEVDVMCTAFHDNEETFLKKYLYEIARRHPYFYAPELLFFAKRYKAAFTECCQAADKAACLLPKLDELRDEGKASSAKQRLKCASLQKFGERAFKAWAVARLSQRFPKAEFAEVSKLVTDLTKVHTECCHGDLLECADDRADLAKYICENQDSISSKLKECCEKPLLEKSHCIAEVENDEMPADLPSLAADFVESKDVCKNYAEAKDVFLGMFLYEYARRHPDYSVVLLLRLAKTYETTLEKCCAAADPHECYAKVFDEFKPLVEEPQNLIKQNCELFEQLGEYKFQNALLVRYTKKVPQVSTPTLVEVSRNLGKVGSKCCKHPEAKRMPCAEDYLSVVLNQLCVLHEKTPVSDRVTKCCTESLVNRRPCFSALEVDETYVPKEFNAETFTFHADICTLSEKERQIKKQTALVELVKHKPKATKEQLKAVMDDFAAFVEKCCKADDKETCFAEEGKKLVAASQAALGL
Protocol: Mobile phase A was 50 mM ammonium acetate adjusted to pH 7.4 and mobile phase B was 2-propanol. The flow rate was 1.5 mL/min and the run time was 6 min. The 2-propanol gradient was applied from 0 to 35% from 0 to 3.00 min and kept at 35% until 4.00 min.

[6] = target: T1, human serum albumin (HSA); settings: cited from earlier work

Structure (SMILES) | CHI (IAM) [1] | log K (IAM) [2] | reference log Vdss [3] | CHI (IAM) from ref [13] [4] | log K HSA [5] | log K HSA from ref [13] [6] | P20511-014-3 CHI (IAM) [2] | R20511-014-3 CHI (IAM) [2] | CHI (IAM) deviation between reference and new IAM.PC.DD2 columns ([2]; system suitability test compounds) | CHI (IAM) “new” ([2]; system suitability test compounds, new IAM.PC.DD2 columns, pH 7.4)
CCC(=O)c1ccccc1 [Propiophenone] | 25.9 | 2.15 |  |  |  |  |  |  |  | 
CC(=O)Nc1ccc(O)cc1 [Paracetamol] | 2.90 | 1.20 |  |  |  |  |  |  |  | 
CCCCCCCC(=O)c1ccccc1 [Octanophenone] | 49.4 | 4.97 |  |  |  |  |  |  |  | 
CC(=O)c1ccccc1 [Acetophenone] | 17.2 | 1.67 |  |  |  |  |  |  |  | 
C#C[C@]1(O)CC[C@H]2[C@@H]3CCc4cc(O)ccc4[C@H]3CC[C@@]21C [Ethinyl estradiol] |  |  | 0.39 | 46.80 | 0.50 | 0.46 | 45.23 | 45.30 |  | 
C=CCOc1ccc(CC(=O)O)cc1Cl [Alclofenac] |  |  | -1.1 | 17.80 | 5.40 | 5.11 | 21.63 | 20.47 |  | 
COC1=CC(=O)C[C@@H](C)[C@]12Oc1c(Cl)c(OC)cc(OC)c1C2=O [Griseofulvin] |  |  | 0.12 | 33.10 | 0.80 | 0.77 | 30.98 | 31.06 |  | 
CCCCCCC(=O)c1ccccc1 [Heptanophenone] | 45.7 | 4.30 |  |  |  |  |  |  |  | 
CCCN(CCC)S(=O)(=O)c1ccc(C(=O)O)cc1 [Probenecid] |  |  | -0.75 | 20.10 | 0.49 | 0.76 | 24.38 | 23.45 |  | 
CC(C(=O)O)c1ccc(-c2ccccc2)c(F)c1 (centres unmarked) [Flurbiprofen] |  |  | -1.56 | 26.80 | 4.01 | 1.26 | 30.89 | 30.23 |  | 
CCCC(=O)c1ccccc1 [Butyrophenone] | 32.0 | 2.62 |  |  |  |  |  |  |  | 
CC1=NS(=O)(=O)c2cc(Cl)ccc2N1 [Diazoxide] |  |  | -0.16 | 24.70 | 5.58 | 5.42 | 23.44 | 23.39 |  | 
COc1cnc(NS(=O)(=O)c2ccc(N)cc2)nc1 [Sulfameter] |  |  | -0.61 | 3.70 | 2.44 | 4.09 | 7.09 | 6.92 |  | 
CCCCCC(=O)c1ccccc1 [Hexanophenone] | 41.8 | 3.71 |  |  |  |  |  |  |  | 
CCCCC(=O)c1ccccc1 [Valerophenone] | 37.3 | 3.16 |  |  |  |  |  |  |  | 
CC(=O)Nc1ccccc1 [Acetanilide] | 11.5 | 1.45 | -0.13 | 10.70 | 0.43 | 0.62 | 11.50 | 11.55 |  | 
Cc1ccc(C)c(OCCCC(C)(C)C(=O)O)c1 [Gemfibrozil] |  |  | -1.34 | 32.90 | 4.05 | 3.32 | 34.53 | 33.70 |  | 
NC(=O)N1c2ccccc2C=Cc2ccccc21 [Carbamazepine] |  |  | -0.09 | 26.50 | 1.81 | 1.99 | 27.07 | 27.18 | very similar | 27.0
CCC1(c2ccccc2)C(=O)NCNC1=O [Primidone] |  |  | -0.15 | 8.90 | 4.01 | 3.44 | 10.49 | 10.31 |  | 
NC(N)=Nc1nc(CSCCC(N)=NS(N)(=O)=O)cs1 [Famotidine] |  |  | -0.06 | 15.70 | 3.43 | 1.39 | 16.08 | 16.82 |  | 
O=C1NC(=O)C(c2ccccc2)(c2ccccc2)N1 [Phenytoin] |  |  | 0.03 | 31.60 | 0.63 | 0.54 | 30.20 | 30.18 |  | 
CC(C(=O)O)c1cccc(Oc2ccccc2)c1 (centres unmarked) [Fenoprofen] |  |  | -1.27 | 17.20 | 2.32 | 1.58 | 28.26 | 27.17 |  | 

— publication PMC8915595, “Revisiting the application of Immobilized Artificial Membrane (IAM) chromatography to estimate in vivo distribution properties of drug discovery compounds based on the model of marketed drugs” (ADMET & DMPK, 2020)
